According to patent US20100322928A1, “METHODS OF DIAGNOSING, MONITORING TREATMENT AND TREATING SYSTEMIC LUPUS ERYTHEMATOSUS (SLE)” (Yeda Research and Development Co., Ltd., priority 2007, published 2010):
Entries after “also recorded” stand apart in the source; their conditions may differ. Marks after values point to notes of the source that are not given here.

Assays:
OX40L = test: Immunostaining of kidney sections for OX40L expression; format: in vivo; conditions: 6 edratide-treated mice; intense staining in all 5 vehicle-treated mice
Method: Immunohistochemistry of kidney sections. Frozen cryostat sections (6 μm) were air-dried and fixed in acetone. For detection of OX40 ligand (OX40L) expression, sections were incubated for 16 hours at room temperature with anti-OX40L monoclonal antibody (M−20; Santa Cruz Biotechnology, Santa Cruz, Calif.). FITC-conjugated mouse anti-goat IgG (Jackson ImmunoResearch Laboratories, West Grove, Pa.) was then added.
Immunostaining of kidneys of (NZB×NZW)F1 mice for OX40L expression. […] Immunohistological analysis of kidney sections from 5 SLE-afflicted vehicle-treated or 6 edratide-treated mice and 3 disease-free young mice was performed.

[1] = tested on: (NZB×NZW)F1 mice with established SLE; test: ELISA for dsDNA-specific antibodies in sera of treated SLE-afflicted mice; format: in vivo; conditions: bled after termination of treatment, s.c. once a week for 10 weeks
Method: (§1) Treatment of (NZB×NZW)F1 mice with edratide. Female mice aged 6-7 months, with established SLE, were divided into groups (8-10 mice per group) and injected subcutaneously (s.c.) with edratide (25-50 μg) or vehicle only (Captisol®) once a week for 10 weeks. Proteinuria and anti-double stranded DNA (dsDNA) autoantibodies were monitored throughout this period.
Enzyme-linked immunosorbent assay (ELISA) for the detection of dsDNA-specific antibodies. Anti-dsDNA-specific antibodies were determined using lambda phage dsDNA as previously described (5).
(§2) Treatment with edratide ameliorates disease manifestations in (NZB×NZW)F1 mice with established SLE. SLE-afflicted female mice, aged 6-7 months, were treated with 10 weekly s.c. injections of edratide or vehicle (Captisol®) and followed for disease manifestations. One week after the treatment ended the mice were killed and their kidneys were evaluated for immune-complex deposits. The results of a representative experiment are presented in Table 1 below, which summarizes some clinical manifestations of the experimental mice.

[2] = tested on: (NZB×NZW)F1 mice with established SLE; test: Immunohistology of kidney sections for immune-complex deposits; format: in vivo; conditions: graded 0 none, 1 low, 2 moderate, 3 high intensity, s.c. once a week for 10 weeks
Method: as §1
Immunohistology. For detection of immune-complex deposits, frozen kidney sections (6 μm) were air-dried and fixed in acetone. Sections were incubated with FITC-conjugated goat anti-mouse IgG (gamma-chain specific; Jackson ImmunoResearch Laboratories, Avondale, Pa.) for 30 minutes and were extensively washed with PBS. The intensity of immune-complex deposits was graded on a […]: 0, no deposits; 1, low-intensity deposits; 2, moderate-intensity deposits; 3, high-intensity deposits.
as §2

[3] = tested on: splenocytes of SLE-afflicted (NZB×NZW)F1 mice; test: Affymetrix microarray of RNA from splenocytes of treated mice; format: in vivo
Source text: Preparation of RNA. Using the RNA/DNA/protein isolation reagent (TRI Reagent®; Molecular Research Center, Cincinnati, Ohio), total RNA was isolated from spleen cells that were pooled (n=2-4 mice) from each experimental group of (NZB×NZW)F1 mice.
Microarray and statistics. RNA samples were hybridized to the mouse genome AffymetrixGeneChip® 430A2 (Affymetrix, Santa Clara, Calif.) array. R packages were used from the Bioconductor project (23). Initially, probe signal summarization, normalization, and background subtraction were performed using Robust Multi-array Averaging (RMA) (24) in affy package with default parameters. Then, the statistical test for differentially expressed genes was performed using Linear Models for Microarray (LIMMA) package (25), which allows for a better variance estimation by calculating the moderated t-statistic using empirical Bayesian techniques. Finally, genes were selected that were statistically significant with P value <0.05 in each biological comparison of interest separately.
Microarray analysis of immunocytes from SLE-afflicted mice. In an attempt to identify gene expression profiles characteristic of SLE and to gain an insight into the modified profile induced by edratide, DNA microarray technology was used on RNA preparations from splenocytes of SLE-afflicted (NZB×NZW)F1 mice treated with edratide or with vehicle only (as described above and in Table 1). […] Three independent in vivo experiments were successfully performed. The RNA obtained in each experiment was hybridized independently on the Affymetrix chips.

SLE-afflicted mice = conditions: cited from earlier work
[4] = tested on: (NZB×NZW)F1 mice with established SLE; test: Proteinuria, semi-quantitative Albustix test; format: in vivo; conditions: at the end of the experiment; s.c. once a week for 10 weeks
Method: as §1
Proteinuria. Proteinuria was measured by a standard semi-quantitative test, using an Albustix kit (Bayer Diagnostics, Newbury, UK).
as §2

[5] = tested on: spleen cells of SLE-afflicted (NZB×NZW)F1 mice; test: Real-time RT-PCR of spleen cell mRNA from treated mice; format: in vivo; conditions: normalized to β-actin
Method: Real-time RT-PCR. Messenger RNA (mRNA) was analyzed by quantitative real-time RT-PCR using LightCycler (Roche Diagnostics, Mannheim, Germany). Total RNA was isolated from spleen cells pooled from each treatment group (n=2−4) of (NZB×NZW)F1 mice. To prepare cDNA, RNA was reverse-transcribed using Moloney murine leukemia virus (M-MLV) reverse transcriptase (Promega, Madison, Wis.). The resulting cDNA was subjected to real-time RT-PCR according to the manufacturer's instructions. Briefly, the reaction volume (20 μl) contained 3 mM MgCl2, LightCycler hot start DNA SYBR Green I mix (Roche), specific primer pairs, and 5 μl of cDNA. Conditions for PCR were as follows: 10 minutes at 95° C. followed by 35-50 cycles of 15 seconds at 95° C., 15 seconds at 60° C., and 15 seconds at 72° C. Primer sequences (forward and reverse, respectively) were used as follows:
β-actin levels were used for normalization in calculating the expression levels of all other genes.
Real-time RT-PCR analysis. […] These genes were chosen because they reportedly meet at least one of the following three criteria: involvement in SLE, functioning in lymphocytes, and expression in the kidney.

[6] = SLE-afflicted mice, reference 5

GYYWSWIRQPPGKGEEWIG (hCDR (Edratide) synthetic peptide) [synthetic peptide based on the CDR1 of the human monoclonal anti-DNA antibody bearing the common idiotype 16/6Id]
OX40L expression in kidney sections (immunostaining) (OX40L): very weak (in 2 mice and 1 mouse, respectively) or undetectable (in 4 and 2 mice, respectively); also recorded: down-regulated
Anti dsDNA antibodies (OD), Dilution 1:10 ([1]; serum dilution 1:10, mean ± spread): 1.46 ± 0.32 OD
Anti dsDNA antibodies (OD), Dilution 1:250 ([1]; serum dilution 1:250): 0.48 ± 0.21 OD
Intensity of ICD (immune-complex deposits) [2]: 1.33 ± 0.36
Fold difference in expression, edratide-treated (hCDR1) vs SLE mice: 1190003K14Rik ([3]; gene 1190003K14Rik, splenocytes): 2.4 fold
Fold difference in expression, edratide-treated vs SLE mice: 2700022B06Rik ([3]; gene 2700022B06Rik, not statistically significant): −1.4^† fold
Fold difference in expression, edratide-treated vs SLE mice: 5830484A20Rik ([3]; gene 5830484A20Rik, splenocytes, negative = reduction in signal): −3.0 fold
Fold difference in expression, edratide-treated vs SLE mice: A130040M12Rik ([3]; gene A130040M12Rik, not statistically significant): 1.3^† fold
Fold difference in expression, edratide-treated vs SLE mice: Ass1 ([3]; gene Ass1, not statistically significant): −1.2^† fold
Fold difference in expression, edratide-treated (hCDR1) vs SLE mice: Camp ([3]; gene Camp, splenocytes): 2.8 fold
Fold difference in expression, edratide-treated vs SLE mice: Cd8b1 ([3]; gene Cd8b1, not statistically significant): 2.0^† fold
Fold difference in expression, edratide-treated (hCDR1) vs SLE mice: Ctsg ([3]; gene Ctsg, not statistically significant): 1.2^† fold
Fold difference in expression, edratide-treated vs SLE mice: Cyp11a1 ([3]; gene Cyp11a1, not statistically significant): −1.8^† fold
Fold difference in expression, edratide-treated vs SLE mice: Dhx9 ([3]; gene Dhx9, not statistically significant): −1.0^† fold
Fold difference in expression, edratide-treated vs SLE mice: Fzd6 ([3]; gene Fzd6, splenocytes, negative = reduction in signal): −2.9 fold
Fold difference in expression, edratide-treated vs SLE mice: Gpr132 ([3]; gene Gpr132, not statistically significant): −1.1^† fold
Fold difference in expression, edratide-treated vs SLE mice: Hdgfrp3 ([3]; gene Hdgfrp3, not statistically significant): −1.7^† fold
Fold difference in expression, edratide-treated vs SLE mice: IL5Rα ([3]; gene IL5Rα, splenocytes, negative = reduction in signal): −2.0 fold
Fold difference in expression, edratide-treated vs SLE mice: LOC 545340 ([3]; gene LOC 545340, splenocytes, negative = reduction in signal): −2.7 fold
Fold difference in expression, edratide-treated (hCDR1) vs SLE mice: Lcn ([3]; gene Lcn (Lipocalin 2), splenocytes): 2.9 fold
Fold difference in expression, edratide-treated vs SLE mice: Lmo7 ([3]; gene Lmo7, splenocytes, negative = reduction in signal): −2.8 fold
Fold difference in expression, edratide-treated (hCDR1) vs SLE mice: Ltf ([3]; gene Ltf, splenocytes): 3.2 fold
Fold difference in expression, edratide-treated (hCDR1) vs SLE mice: Mpo ([3]; gene Mpo, not statistically significant): 1.5^† fold
Fold difference in expression, edratide-treated (hCDR1) vs SLE mice: Ngp ([3]; gene Ngp, splenocytes): 2.5 fold
Fold difference in expression, edratide-treated vs SLE mice: Nid1 ([3]; gene Nid1, splenocytes, negative = reduction in signal): −2.4 fold
Fold difference in expression, edratide-treated vs SLE mice: Pigr ([3]; gene Pigr, not statistically significant): −1.4^† fold
Fold difference in expression, edratide-treated (hCDR1) vs SLE mice: Prtn3 ([3]; gene Prtn3, not statistically significant): 1.3^† fold
Fold difference in expression, edratide-treated vs SLE mice: Pstpip2 (second entry) ([3]; gene Pstpip2, entry with SLE fold 2.0, not statistically significant): −1.5^† fold
Fold difference in expression, edratide-treated vs SLE mice: Pstpip2 (first entry) ([3]; gene Pstpip2, entry with SLE fold 2.2, not statistically significant): −1.9^† fold
Fold difference in expression, edratide-treated vs SLE mice: Rnf184 ([3]; gene Rnf184, not statistically significant): 1.2^† fold
Fold difference in expression, edratide-treated (hCDR1) vs SLE mice: S100a8 ([3]; gene S100a8, splenocytes): 2.4 fold
Fold difference in expression, edratide-treated (hCDR1) vs SLE mice: S100a9 ([3]; gene S100a9, splenocytes): 2.4 fold
Fold difference in expression, edratide-treated (hCDR1) vs SLE mice: Slfn ([3]; gene Slfn (Schlafen 4), splenocytes): 2.7 fold
Fold difference in expression, edratide-treated (hCDR1) vs SLE mice: Tfpi ([3]; gene Tfpi, splenocytes): 2.2 fold
Fold difference in expression, edratide-treated (hCDR1) vs SLE mice: Thbs1 ([3]; gene Thbs1, not statistically significant): 1.5^† fold
Fold difference in expression, edratide-treated vs SLE mice: Tnfsf4 ([3]; gene Tnfsf4, splenocytes, negative = reduction in signal): −2.5 fold
Fold difference in expression, edratide-treated vs SLE mice: Zbtb20 ([3]; gene Zbtb20, splenocytes, negative = reduction in signal): −2.2 fold
Fold difference in expression, edratide-treated vs SLE mice: Unknown gene ([3]; gene title and symbol Unknown, SLE fold 1.9): −1.7 fold
Number of genes down-regulated 2-fold or more in diseased mice that were up-regulated after treatment ([3]; of the 12 identified genes): 9 (75%) genes
Number of genes up-regulated 2-fold or more in SLE-afflicted mice that were significantly down-regulated after treatment ([3]; of the 15 genes with an identified product): 9 (60%) genes
Number of disease-altered genes affected by edratide and restored to levels similar to disease-free controls ([3]; of the 348 genes with altered expression in vehicle-treated diseased mice (22%)): 76 genes
Kidney disease (SLE-afflicted mice; (NZB×NZW)F1 mice, WO 02/067848): reduced kidney disease
Immunosuppressive cytokine TGFβ (SLE-afflicted mice; [6]): up-regulated
Secretion and expression of pathogenic cytokines (IFNγ, IL-1β, TNFα, IL-10) (SLE-afflicted mice; [6]): reduced secretion and expression
Proteinuria [4]: 1.92 ± 0.96 g/L
Real-time RT-PCR expression of Tfpi and S100a8 transcripts ([5]; genes down-regulated by the disease, FIG. 2B): up-regulated after edratide treatment to levels similar to those in the young controls
Real-time RT-PCR expression of Tnfsf4, Il-5rα, Zbtb20 and Nid1 transcripts ([5]; genes up-regulated by the disease, FIG. 2A): reduced the expression of these genes to levels similar to those seen in the young mice
